Reference: the supplement of paper PMC10307832

How the values were obtained:
Assay in all cases: relative viability (nuclei count vs DMSO), 5 days (fraction); higher = more cells survive
Nelarabine + Foretinib = compound: COc1nc(N)nc2c1ncn2[C@@H]1O[C@H](CO)[C@@H](O)[C@@H]1O [Nelarabine] + COc1cc2c(Oc3ccc(NC(=O)C4(C(=O)Nc5ccc(F)cc5)CC4)cc3F)ccnc2cc1OCCCN1CCOCC1 [Foretinib] (partner 0.25 µM)
In short: (§1)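 The day after seeding in 1536-well plates, lung cancer cell lines were treated by pin tool with a single drug, or with a fixed anchor-drug dose together with five library-drug doses (not always all listed) in √10 steps. After 5 days, a combined fix-and-stain solution (final 0.05% Triton X-100, 1% formaldehyde, 1 ug/ml Hoechst) was added. Nuclei counted on 4× images gave relative viability as treated counts over vehicle counts, reported as the median of duplicate plates.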

Adavosertib + Dasatinib = compound: C=CCn1c(=O)c2cnc(Nc3ccc(N4CCN(C)CC4)cc3)nc2n1-c1cccc(C(C)(C)O)n1 [Adavosertib] + Cc1nc(Nc2ncc(C(=O)Nc3c(C)cccc3Cl)s2)cc(N2CCN(CCO)CC2)n1 [Dasatinib] (partner 0.075 µM)
In short: as §1

Adavosertib + Alpelisib = compound: C=CCn1c(=O)c2cnc(Nc3ccc(N4CCN(C)CC4)cc3)nc2n1-c1cccc(C(C)(C)O)n1 [Adavosertib] + Cc1nc(NC(=O)N2CCC[C@H]2C(N)=O)sc1-c1ccnc(C(C)(C)C(F)(F)F)c1 [Alpelisib] (partner 2 µM)
In short: as §1

Nelarabine + Crizotinib = compound: COc1nc(N)nc2c1ncn2[C@@H]1O[C@H](CO)[C@@H](O)[C@@H]1O [Nelarabine] + C[C@@H](Oc1cc(-c2cnn(C3CCNCC3)c2)cnc1N)c1c(Cl)ccc(F)c1Cl [Crizotinib] (partner 1 µM)
In short: as §1

Cell Line | relative viability (Nelarabine + Foretinib; first compound 0.01 µM) | relative viability (Nelarabine + Foretinib; first compound 0.03162 µM) | relative viability (Nelarabine + Foretinib; first compound 0.1 µM) | relative viability (Nelarabine + Foretinib; first compound 0.3162 µM) | relative viability (Nelarabine + Foretinib; first compound 1 µM) | relative viability (Adavosertib + Dasatinib; first compound 0.01 µM) | relative viability (Adavosertib + Dasatinib; first compound 0.03162 µM) | relative viability (Adavosertib + Dasatinib; first compound 0.1 µM) | relative viability (Adavosertib + Dasatinib; first compound 0.3162 µM) | relative viability (Adavosertib + Alpelisib; first compound 0.01 µM) | relative viability (Adavosertib + Alpelisib; first compound 0.03162 µM) | relative viability (Adavosertib + Alpelisib; first compound 0.1 µM) | relative viability (Adavosertib + Alpelisib; first compound 0.3162 µM) | relative viability (Nelarabine + Crizotinib; first compound 0.01 µM) | relative viability (Nelarabine + Crizotinib; first compound 0.03162 µM) | relative viability (Nelarabine + Crizotinib; first compound 0.1 µM) | relative viability (Nelarabine + Crizotinib; first compound 0.3162 µM) | relative viability (Nelarabine + Crizotinib; first compound 1 µM)
NCI-H1355 | 1.05 | 0.984 | 0.947 | 1 | 1.03 | 0.673 | 0.643 | 0.696 | 0.569 | 0.878 | 0.84 | 0.777 | 0.751 | 1.44 | 0.879 | 1.02 | 1.15 | 1.08
NCI-H1944 | 1.09 | 0.896 | 0.776 | 0.917 | 0.834 | 0.205 | 0.201 | 0.218 | 0.199 | 0.822 | 0.774 | 0.645 | 0.666 | 1.12 | 1.06 | 1.16 | 1.08 | 1.02
